Data: patent US12702692B2, “Therapeutic use of calcium-activated chloride channel peptide activator” (CENTRE NATIONAL DE LA RECHERCHE SCIENTIFIQUE, priority 2020, dated 2026)

What was measured:
[1] = Acute effect on tear fluid secretion (tearing rate, phenol red thread) in naive rats; type: in vivo, Sprague-Dawley rats
Experimental: Sprague-Dawley rats (males, around 200 g) were purchased from Charles River and adapted one week before processing the experiment. Two-three rats per cage were housed in a controlled environment of 12 hours intervals of light/dark cycles and free access to food and water. Animal experiments were approved by the Animal Care and Use Committee of the University of Barcelona (CEEA) and the […] de Territori i Sostenibilitat of Generalitat de Catalunya, Catalonia, Spain (319/19; 10935) and followed the ethical guidelines of the International Association for the Study of Pain. […] (also named Nter 13 peptide or […] NO: 2)) and scramble ([…] NO: 7)) peptides were purchased from GenScript Biotech (Leiden, Netherlands) and provided by CNRS. Both peptides were dissolved in Phosphate Buffered Saline (PBS) at 10 mM and used for topical ocular application (5 ul per eye). Tear fluid secretion (tearing rate) was measured using phenol red threads (Zone-Quick, Menicon, Nagoya, Japan) placed on the lower eyelid for 30 s without topical anesthesia (Trost, 2007; Acosta 2013). Tearing rate was determined with an accuracy of ±0.5 mm by measurement of the length of the red portion of the thread. After habituation of the animals, basal tearing rate was measured in both eyes before any topical application of peptides. Then, animals were divided in different groups and a solution containing vehicle (PBS), amiloride (1 mM), peptide N13 or peptide scramble was topically applied to the ocular surface (5 μl) and tearing rate was measured at 1, 3, 6, 12 and 24 h. Tearing rate measurements were done blind to the treatment received by the animals. Data are presented as mean±standard error of the mean (SEM). Statistical differences between different sets of data were assessed by performing repeated measured One-way ANOVA plus Bonferroni's post-tests (each data point in an experimental group vs. basal values) or repeated measured Two-way ANOVA plus Bonferroni's post-tests (each data point in […] group vs. Scramble or Vehicle group; or point in […] or amiloride groups vs. Vehicle group) using Prism 9 (GraphPad Software, San Diego, CA). The significance level was set at p<0.05 in all statistical analyses.

TMEM16A [2] = target: T1, TMEM16A (Mus musculus, UniProt Q8BHY3); assay: Whole-cell patch-clamp of HEK293T cells expressing TMEM16A; type: cell-based; details: for inhibition of KCNE1-TMEM16A chloride current: HEK293T co-expressing TMEM16A and KCNE1; for effect of peptide application on TMEM16A current: HEK293T cells expressing TMEM16A alone, 100 μM for Nter13, S38G and rat peptides
T1 construct: expressed in transfected cells; host or cells: HEK293T
T1 sequence (Q8BHY3 1-960): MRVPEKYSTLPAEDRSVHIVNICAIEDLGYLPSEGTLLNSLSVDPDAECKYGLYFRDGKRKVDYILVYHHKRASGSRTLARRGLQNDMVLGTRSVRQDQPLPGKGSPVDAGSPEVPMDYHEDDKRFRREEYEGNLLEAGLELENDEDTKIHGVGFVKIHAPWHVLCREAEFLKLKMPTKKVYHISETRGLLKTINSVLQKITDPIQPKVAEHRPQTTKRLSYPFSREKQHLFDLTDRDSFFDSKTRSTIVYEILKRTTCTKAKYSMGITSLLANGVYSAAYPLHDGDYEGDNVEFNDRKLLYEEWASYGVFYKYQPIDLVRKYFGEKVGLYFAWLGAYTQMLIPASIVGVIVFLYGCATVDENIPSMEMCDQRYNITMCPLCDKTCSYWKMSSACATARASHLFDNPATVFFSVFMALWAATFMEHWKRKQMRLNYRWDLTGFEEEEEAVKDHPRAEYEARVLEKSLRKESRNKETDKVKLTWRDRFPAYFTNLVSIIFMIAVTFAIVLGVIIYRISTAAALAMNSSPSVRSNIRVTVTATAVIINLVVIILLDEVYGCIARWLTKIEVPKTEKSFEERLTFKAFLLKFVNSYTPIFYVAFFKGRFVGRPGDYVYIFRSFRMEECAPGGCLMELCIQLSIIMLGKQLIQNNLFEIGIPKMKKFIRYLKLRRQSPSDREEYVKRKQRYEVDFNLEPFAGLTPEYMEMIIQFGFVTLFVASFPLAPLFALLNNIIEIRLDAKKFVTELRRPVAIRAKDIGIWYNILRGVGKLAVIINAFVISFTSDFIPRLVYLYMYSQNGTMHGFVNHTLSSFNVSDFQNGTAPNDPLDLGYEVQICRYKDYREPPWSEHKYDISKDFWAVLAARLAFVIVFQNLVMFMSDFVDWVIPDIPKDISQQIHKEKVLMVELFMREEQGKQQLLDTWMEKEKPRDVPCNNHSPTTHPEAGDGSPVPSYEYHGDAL
Experimental: (§1) mTMEM16A (kindly provided by Dr Lily Yeh Jan) and hKCNE1 cDNA were subcloned in pIRES2eGFP, pXOOM, pcDNA3.1, pCDNA3.1-GFP and pCMV-HA vectors. Truncations and mutations on KCNE1 were generated by PCR. For SiMPull experiments, HA-tags were fused to the N-terminus of sequences, whereas GFP-tags were fused to C-terminal part. HEK293T and PCT cells were transiently co-transfected using Lipofectamine 2000 or the calcium phosphate method with a total amount of 1 and 3.5 μg of DNA, respectively, and seeded on 18 mm diameter coverslips. HEK cells were maintained in DMEM with 5% FBS on poly-L-lysine-coated glass coverslips in 12 well plates. PCT cells from wild type and knock-out mice were microdissected as described previously and maintained in F12 (Gibco) on collagen-coated glass coverslips.
(§2) HEK293T and PCT cell electrophysiology was performed 24-48 h after transfection. For whole-cell patch-clamp experiments cells were recorded in a bath solution containing (in mM) 150 NaCl, 5 KCl, 2 CaCl2 and 10 HEPES, pH 7.4 and 0.05% BSA. The glass pipettes (2-5 MΩ of resistance) were filled with (in mM) 5 NaCl, 135 CsCl, 2 MgCl2, 5 EGTA, 10 HEPES, pH 7.3. Cells were recorded either after incubation of 30 min with the peptide or during perfusion with the peptide. Total calcium concentration was calculated with Maxchelator (maxchelator.standford.edu) for a temperature of 20° C. HEK293T and PCT cells were recorded at room temperature in voltage-clamp mode using an Axopatch 200A (Molecular Devices) amplifier. Signals were filtered at 10 kHz and digitalized at 20 kHz. Whole-cell currents were elicited by voltage-ramps (from −100 to +100 mV, 1 s) and I-V stimulation pulses (from −100 to +100 mV in 20 mV increments, 1 s each pulse), holding the cells at −80 mV. Current densities were measured at +100 mV. Cell recordings, data acquisition and analysis of electrophysiology experiments were performed using pClamp software (Molecular Devices).

TMEM16A [3] = target: T2, TMEM16A (Mus musculus, UniProt Q8BHY3); assay: Whole-cell patch-clamp of voltage-dependent Cl- current in proximal convoluted tubule (PCT) cells; type: cell-based; details: for Cl- current density after inhibitor: wild type PCT cells, untreated wild type 18.07±1.21
T2 construct: endogenous in cells; host or cells: primary mouse kidney proximal convoluted tubule (PCT) cells
Experimental: as §1, §2
T2 sequence (P23299 whole entry partner, one chain of several): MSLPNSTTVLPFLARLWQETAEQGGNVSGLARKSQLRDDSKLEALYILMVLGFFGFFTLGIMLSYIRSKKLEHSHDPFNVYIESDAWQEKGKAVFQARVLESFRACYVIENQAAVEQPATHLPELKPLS

SK4 channel = target: T3, SK4 channel (Homo sapiens, UniProt O15554); assay: Patch-clamp of HEK293T cells transfected with SK4 and KCNE1; type: cell-based; details: absence of calcium
T3 construct: expressed in transfected cells
Experimental: as §2

KCNQ1 = target: T4, KCNQ1 (Homo sapiens, UniProt P51787); assay: Whole-cell patch-clamp of cells transfected with KCNQ1 and KCNE1 variants; type: cell-based; details: co-transfected with wild type KCNQ1, current densities at +40 mV
T4 construct: expressed in transfected cells

[4] = KCNE1 form co-expressed with TMEM16A in HEK293T cells

N=C(N)NC(=O)c1nc(Cl)c(N)nc1N [Amiloride, amiloride, reference compound]
effect on tearing rate compared with Vehicle ([1]; N13ter 10 mM, amiloride 1 mM, vehicle PBS): did not show a statistically significant effect
eyes with increased tearing rate between 1 h to 3 h ([1]; amiloride 1 mM topical): 7 out of 14

COc1ccccc1/C=N/NC(=O)COc1ccc(Cl)cc1C [Ani9, reference compound]
inhibition of KCNE1-TMEM16A chloride current (TMEM16A [2]; Ani9 300 nM): inhibited
effect of Ani9 on Nter13-induced TMEM16A current (TMEM16A [2]; Ani9 5 μM after Nter13 100 μM, HEK293T expressing TMEM16A alone): reversion
Cl- current density after inhibitor (TMEM16A [3]; Ani9 5 μM): 2.88±0.38 pA/pF

O=C(O)c1cccnc1Nc1cccc(C(F)(F)F)c1 [NFA, niflumic acid, reference compound]
inhibition of KCNE1-TMEM16A chloride current (TMEM16A [2]; NFA 100 μM): inhibited
Cl- current density after inhibitor (TMEM16A [3]; NFA 100 μM): 4.51±0.28 pA/pF

CCc1c(C)nc(SCC(=O)Nc2nc(-c3ccc(OC)cc3)cs2)[nH]c1=O [T16Ainh-A01, reference compound]
inhibition of KCNE1-TMEM16A chloride current (TMEM16A [2]; T16A(inh)A01 10 μM): inhibited
Cl- current density after inhibitor (TMEM16A [3]; A01 10 μM): 5.52±0.72 pA/pF

KCNE1: human KCNE1 protein of 129 amino acids (NP_000210.2), expressed from cDNA
reversal potential (TMEM16A [2]; KCNE1 co-expressed with TMEM16A in HEK293T cells): −4.8±1.3 mV
current density at +100 mV (TMEM16A [2]; [4]): 18.1±2.8 pA/pF
current density at +100 mV (TMEM16A [2]; TMEM16A co-expressed with KCNE1, 1 mM BAPTA): 21.98±5.32 pA/pF
voltage-dependent Cl- current density after rescue (TMEM16A [3]; kcne1−/− PCT cells transfected with KCNE1 cDNA, KO 5.37±0.56): 21.59±1.38 pA/pF
effect of KCNE1 overexpression on SK4 current (SK4 channel): did not induce any increase

LLAKRGRDSGPSR (SEQ ID NO: 7) (Synthetic scramble peptide) [scrambled control peptide, reference compound]
effect of peptide application on TMEM16A current (TMEM16A [2]): no effect
tearing rate at 12 h ([1]; 10 mM topical, 5 μl per eye, n=20 eyes, basal 7.65±0.49 mm (N13ter), 8.10±0.54 mm (Scramble)): 6.45±0.34 mm
effect on tearing rate ([1]; N13ter vs Scramble study, both 10 mM topical): sustained small decrease

S38G: KCNE1 S38G polymorphism variant (full protein, not the hS38G peptide)
current density at +100 mV (TMEM16A [2]; [4]): 6.96±0.78 pA/pF
effect of KCNE1 polymorphism on KCNQ1 regulation (KCNQ1): do not impair the KCNQ1 regulation

T7I: KCNE1 disease mutation T7I, not in the regulating domain, control
current density at +100 mV (TMEM16A [2]; [4]): 24.69±1.57 pA/pF

hS38G: hS38G peptide (SEQ ID NO: 5), N13 presenting S38G polymorphism (LARRSPRGGDGKL; hN13 S38G) [reference compound]
effect of peptide application on TMEM16A current (TMEM16A [2]): no effect

rN13: rat N13 peptide (SEQ ID NO: 6) (LARRSQLRDDSKL; amino acid residues between positions 30 to 42 of the rat KCNE1 protein sequence)
effect of peptide application on TMEM16A current (TMEM16A [2]): only a small effect
